Molecular target: Factor D (Homo sapiens (Human), UniProt P00746)
Assay: biochemical
Assay type: biochemical
Settings: read-out: IC50

Chain of Factor D (P00746 26-253): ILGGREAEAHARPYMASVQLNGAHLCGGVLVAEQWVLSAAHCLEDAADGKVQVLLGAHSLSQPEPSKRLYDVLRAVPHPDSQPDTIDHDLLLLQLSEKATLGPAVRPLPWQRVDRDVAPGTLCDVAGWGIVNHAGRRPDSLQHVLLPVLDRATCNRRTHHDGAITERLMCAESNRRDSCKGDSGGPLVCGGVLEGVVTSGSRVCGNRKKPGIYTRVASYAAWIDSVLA

SMILES	IC50
NC(=O)n1cc(NC(=O)N2[C@@H]3C[C@@H]3C[C@H]2C(=O)NCc2ccccc2F)c2cc(O)ccc21 [Example 372, (1R,3S,5R)-2-Aza-bicyclo[3.1.0]hexane-2,3-dicarboxylic acid 2-[(1-carbamoyl-5-hydroxy-1H-indol-3-yl)-amide]3-(2-fluoro-benzylamide)]	0.045 µM
CC(=O)n1cc(NC(=O)N2CCC[C@H]2C(=O)Nc2cccc(OC(F)(F)F)c2)c2ccc(C#N)cc21 [Example 367, (S)-Pyrrolidine-1,2-dicarboxylic acid 1-[(1-acetyl-6-cyano-1H-indol-3-yl)-amide]2-[(3-trifluoromethoxy-phenyl)-amide]]	7.95 µM
CO[C@H]1C[C@@H](C(=O)Nc2cccc(OC(F)(F)F)c2)N(C(=O)Nc2cn(C(N)=O)c3ccccc23)C1 [Example 128, (2S,4S)-4-Methoxy-pyrrolidine-1,2-dicarboxylic acid 1-[(1-carbamoyl-1H-indol-3-yl)-amide] 2-[(3-trifluoromethoxy-phenyl)-amide]]	2 µM
NC(=O)n1cc(NC(=O)N2C[C@@H](N)C[C@H]2C(=O)NC2CCCN(c3ccccn3)C2)c2ccccc21 (stereo partly drawn) [Example 78, (2S,4S)-4-Amino-pyrrolidine-1,2-dicarboxylic acid 1-[(1-carbamoyl-1H-indol-3-yl)-amide] 2-[(3,4,5,6-tetrahydro-2H-[1,2′]bipyridinyl-3-yl)-amide]]	10.4 µM
NC(=O)n1cc(NC(=O)N2C3CC3C[C@H]2C(=O)NCc2cccc(Cl)c2F)c2ccc(OCCO)cc21 (stereo partly drawn) [Example 395, 1R,3S,5R)-2-Aza-bicyclo[3.1.0]hexane-2,3-dicarboxylic acid 2-{[1-carbamoyl-6-(2-hydroxy-ethoxy)-1H-indol-3-yl]-amide}3-(3-chloro-2-fluoro-benzylamide]	0.025 µM
NC(=O)n1cc(NC(=O)N2C[C@H](F)C[C@H]2CNS(=O)(=O)c2cccc(Br)c2)c2ccccc21 [Example 108, 3-({(2S,4R)-4-Fluoro-2-[(3-bromo-benzenesulfonylamino)-methyl]-pyrrolidine-1-carbonyl}-amino)-indole-1-carboxylic acid amide]	0.055 µM
CC[C@H](C)[C@H](NC(=O)[C@@H]1C[C@H](N)CN1C(=O)Nc1cn(C(N)=O)c2ccccc12)C(N)=O [Example 99, (2S,4S)-4-Amino-pyrrolidine-1,2-dicarboxylic acid 1-[(1-carbamoyl-1H-indol-3-yl)-amide] 2-[((1S,2S)-1-carbamoyl-2-methyl-butyl)-amide]]	23.2 µM
COc1cc2c(C(N)=O)nn(CC(=O)N3[C@@H]4C[C@@H]4C[C@H]3C(=O)Nc3cccc(OC(F)(F)F)c3F)c2cn1 [Example 714, 1-{2-[(1R,3S,5R)-3-(2-Fluoro-3-trifluoromethoxy-phenylcarbamoyl)-2-aza-bicyclo[3.1.0]hex-2-yl]-2-oxo-ethyl}-5-methoxy-1H-pyrazolo[3,4-c]pyridine-3-carboxylic acid amide]	0.3 µM
C[C@@H](NC(=O)[C@@H]1C[C@H]2C[C@H]2N1C(=O)Cn1nc(C(N)=O)c2cc(C3CC3)ncc21)c1cccc(Cl)c1F [Example 701, 1-(2-{(1R,3S,5R)-3-[(R)-1-(3-Chloro-2-fluoro-phenyl)-ethylcarbamoyl]-2-aza-bicyclo[3.1.0]hex-2-yl}-2-oxo-ethyl)-5-cyclopropyl-1H-pyrazolo[3,4-c]pyridine-3-carboxylic acid amide]	0.015 µM
NC(=O)n1cc(NC(=O)N2CCNC[C@H]2C(=O)NCc2cccc(Cl)c2)c2ccccc21 [Example 399, S)-piperazine-1,2-dicarboxylic acid 1-[(1-carbamoyl-1H-indol-3-yl)-amide]2-(3-chloro-benzylamide]	1.6 µM
C[C@@]1(F)C[C@@H](C(=O)NCc2cccc(Cl)c2F)N(C(=O)Cn2cc(C(=O)CO)c3ccccc32)C1 [Example 543, (2S,4R)-4-Fluoro-1-{2-[3-(2-hydroxy-acetyl)-indol-1-yl]-acetyl}-4-methyl-pyrrolidine-2-carboxylic acid 3-chloro-2-fluoro-benzylamide]	0.245 µM
CC(=O)c1nc(CC(=O)N2[C@@H]3C[C@@H]3C[C@H]2C(=O)N[C@H](CO)c2cccc(Cl)c2F)n2ccccc12 [Example 644, (1R,3S,5R)-2-[2-(1-Acetyl-imidazo[1,5-a]pyridin-3-yl)-acetyl]-2-aza-bicyclo [3.1.0]hexane-3-carboxylic acid [(S)-1-(3-chloro-2-fluoro-phenyl)-2-hydroxy-ethyl]-amide]	0.079 µM
NC(=O)n1cc(NC(=O)N2C[C@H](F)C[C@H]2C(=O)NCc2cccc(Cl)c2F)c2ccccc21 [Example 1]	0.007 µM
NC(=O)c1nn(CC(=O)N2[C@@H]3C[C@@H]3C[C@H]2C(=O)Nc2cccc(OC(F)(F)F)c2F)c2cnccc12 [Example 724]	0.061 µM
CN(C)CCNC(=O)c1cc(Cl)c(F)c(CNC(=O)[C@@H]2C[C@@H](F)CN2C(=O)Nc2cn(C(N)=O)c3ccccc23)c1 [Example 154, (2S,4R)-4-Fluoro-pyrrolidine-1,2-dicarboxylic acid 1-[(1-carbamoyl-1H-indol-3-yl)-amide] 2-[3-chloro-5-(2-dimethylamino-ethyl-carbamoyl)-2-fluoro-benzylamide]]	1.37 µM
NC(=O)n1cc(NC(=O)N2C[C@H](F)C[C@H]2CNS(=O)(=O)c2ccccc2F)c2ccccc21 [Example 104, 3-({(2S,4R)-4-Fluoro-2-[(2-fluoro-benzenesulfonylamino)-methyl]-pyrrolidine-1-carbonyl}-amino)-indole-1-carboxylic acid amide]	1.49 µM
CC(=O)c1cn(CC(=O)N2C[C@H](F)C[C@H]2C(=O)NCc2cccc(Cl)c2F)c2ccc(OCc3ncccn3)cc12 [Example 590, (2S,4R)-1-{2-[3-Acetyl-5-(pyrimidin-2-ylmethoxy)-indol-1-yl]-acetyl}-4-fluoro-pyrrolidine-2-carboxylic acid 3-chloro-2-fluoro-benzylamide]	0.01 µM
NC(=O)n1cc(NC(=O)N2C[C@H](F)C[C@H]2C(=O)NCc2ccccc2C(=O)O)c2ccccc21 [Example 23, 2-({[(2S,4R)-1-(1-Carbamoyl-1H-indol-3-ylcarbamoyl)-4-fluoro-pyrrolidine-2-carbonyl]-amino}-methyl)-benzoic acid]	1.85 µM
CC(=O)n1cc(NC(=O)N2CCC[C@H]2C(=O)Nc2cccc(OC(F)(F)F)c2)c2ccccc21 [Example 271, (S)-Pyrrolidine-1,2-dicarboxylic acid 1-[(1-acetyl-1H-indol-3-yl)-amide] 2-[(3-trifluoromethoxy-phenyl)-amide]]	0.629 µM
COc1ccc2c(c1)c(C(C)=O)cn2CC(=O)N1C[C@H](F)[C@@H](OC)[C@H]1C(=O)NCc1cccc(Cl)c1F [Example 485, (2S,3S,4S)-1-[2-(3-Acetyl-5-methoxy-indol-1-yl)-acetyl]-4-fluoro-3-methoxy-pyrrolidine-2-carboxylic acid 3-chloro-2-fluoro-benzylamide]	0.015 µM
NC(=O)n1cc(CC(=O)N2C[C@H](F)C[C@H]2C(=O)NCc2cccc(Cl)c2F)c2cc(F)ccc21 [Example 460, 3-{2-[(2S,4R)-2-(3-Chloro-2-fluoro-benzylcarbamoyl)-4-fluoro-pyrrolidin-1-yl]-2-oxo-ethyl}-5-fluoro-indole-1-carboxylic acid amide]	0.02 µM
